In US9096594B2, “Kinase inhibitors and methods of use thereof” (priority 2012, dated 2015):
Read-outs that look alike come from different tables or passages of the source.

Columns and labels:
GSK3α [1] = target: T1, GSK3α (Homo sapiens (Human), UniProt P49840); experiment: biochemical
Protocol: GSK3β Microfluidic Mobility-Shift Assay
(§1) Reactions were terminated by the addition of 10 mM EDTA. Substrate and product were separated electrophoretically and fluorescence intensity of the substrate and product was determined by Labchip EZ Reader II (Caliper Life Sciences, MA). The kinase activity was measured as percent conversion. The reactions were performed in duplicate for each sample. […] The results were analyzed by Genedata Assay Analyzer. The percent inhibition was plotted against the compound concentration and the IC50 value was determined from the logistic dose-response curve fitting.

CK1δ = CK1δ (Homo sapiens (Human), UniProt P48730); experiment: biochemical
Description: Approximately 20,000 Response Units (RU) of anti GST-antibody (GE Healthcare Life Sciences) were immobilized on Flow Cell (FC) 1 and FC2 of a new, freshly conditioned CM5 Sensor Chip (GE Healthcare Life Sciences) in a Biacore T100 instrument utilizing the immobilization wizard of the T100 software package. Approximately 1,500 RU of recombinant GST (GE Healthcare Life Sciences) was then captured on FC1 utilizing the capture wizard protocol of the T100 software package. FC1 is used as a reference subtraction point for this and all SPR assays. Approximately 2,700 RU of recombinant GST-CK1δ was then captured on FC2 utilizing the capture wizard protocol of the T100 software package. FC2 is used as the active flowcell for this and all SPR assays. The analyte plate is generated in dose response fashion in TBS buffer containing a final concentration of 2% DMSO, with a final analyte concentration of 10 μM, 100 nM and 10 nM. A zero value is determined by running injections of buffer containing only 2% DMSO and no analyte. All injections are run in duplicate and are reference subtracted from FC1. A method consisting of a 60 second contact time and 60 second wash time with a flow rate of 30 μL/min was employed. […] Analysis of compounds was done using the 1:1 binding model and affinity measurements in the Biacore T100 evaluation software package.
Conditioning new chip: PBS immobilization buffer was loaded into buffer shelf and insert buffer line A. Unused CM5 sensor chip was loaded into instrument per user manual. Chip was primed with 6 minutes of buffer injection at 30 μL/min.
Primed chip again as described above. Generated anti GST antibody solution by mixing 4.5 μL anti GST antibody (GE Healthcare Life Sciences, GST Capture Kit) with 95.5 μL immobilization buffer (GE Healthcare Life Sciences, GST Capture Kit). Put solution into 700 μL small vial and cap. Repeated. Placed both vials in reagent rack 1 of Biacore T100 instrument and insert into machine per user manual. Initiated immobilization of anti GST antibody by utilizing the immobilization Wizard protocol of Biacore T100 software. Immobilized approximately 20,000 Response Units (RU) of anti GST antibody on FC1 and FC2. […] Inserted buffer line A. Repeated prime procedure. Generated GST protein solution by mixing 2 μL of recombinant GST (GE Healthcare Life Sciences, GST Capture Kit) with 98 μL TBS 2% DMSO buffer. Generated GST-CK1δ protein solution by mixing 5 μL of recombinant GST-CK1δ with 95 μL TBS 2% DMSO running buffer. Placed GST protein solution in position B1 on reagent rack 1. Placed GST-CK1δ protein solution in position Cl on reagent rack 1. Initiated a manual injection run and inject for 30 seconds at 5 μL/min GST protein solution on FC1 to generate reference flow cell. […] Captured approximately 1500 RU GST protein on FC1. Captured approximately 2700 RU GST-CK1δ protein on FC2.
An analyte plate was generated for the assay. Using a standard deep volume 384 well plate, placed 100 μL of a 10 μM analyte in TBS 2% DMSO solution wells A1 and A2. Placed 100 μL of a 50 nM analyte in TBS 2% DMSO solution in wells A3 and A4. Placed 100 μL of a 10 nM analyte in TBS 2% DMSO solution in wells A5 and A6. Placed 100 μL of TBS 2% DMSO running buffer in wells A7 and A8. Repeated steps for subsequent analytes. Placed analyte plate in Biacore T100 per user manual.

GSK3β [2] = target: T2, GSK3β (Homo sapiens (Human), UniProt P49841); experiment: biochemical
GSK3β [3] = target: T2, GSK3β; experiment: biochemical; remark: listed apart in the source
GSK3β [4] = target: T2, GSK3β; experiment: biochemical; remark: listed apart in the source
GSK3β [5] = target: T2, GSK3β
CDK5/p25 = CDK5/p25 (Homo sapiens (Human), UniProt Q00535)
Sequence of CDK5/p25 (Q00535 whole entry, species assumed): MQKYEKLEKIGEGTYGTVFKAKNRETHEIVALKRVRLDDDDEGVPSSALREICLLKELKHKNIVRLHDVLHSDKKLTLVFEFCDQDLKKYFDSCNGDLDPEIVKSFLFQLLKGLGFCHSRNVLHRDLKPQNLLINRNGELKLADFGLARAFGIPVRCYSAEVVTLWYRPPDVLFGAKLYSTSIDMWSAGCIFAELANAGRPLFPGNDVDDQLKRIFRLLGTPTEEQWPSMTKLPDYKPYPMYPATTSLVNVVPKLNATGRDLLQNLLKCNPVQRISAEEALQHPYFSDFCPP
Sequence of CDK5/p25 (Q15078 99-307 partner, species assumed): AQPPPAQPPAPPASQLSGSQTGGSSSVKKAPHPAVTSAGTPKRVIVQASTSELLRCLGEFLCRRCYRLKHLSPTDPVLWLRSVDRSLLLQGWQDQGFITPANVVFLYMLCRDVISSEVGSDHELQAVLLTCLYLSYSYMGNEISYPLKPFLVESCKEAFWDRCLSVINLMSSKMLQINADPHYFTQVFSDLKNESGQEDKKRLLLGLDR
Protocol: Biochemical characterization of these synthesized compounds were assayed against GSK3β and CDK5/p25, with CDK5/p25 serving as a counter target of GSK3β selectivity. […] The effects of these compounds on survival of SH-SY5Y pathophysiology cells were also monitored.

GSK3α [6] = target: T1, GSK3α
Protocol: GSK3β Microfluidic Mobility-Shift Assay
as §1

Sequence of CK1δ (P48730 whole entry): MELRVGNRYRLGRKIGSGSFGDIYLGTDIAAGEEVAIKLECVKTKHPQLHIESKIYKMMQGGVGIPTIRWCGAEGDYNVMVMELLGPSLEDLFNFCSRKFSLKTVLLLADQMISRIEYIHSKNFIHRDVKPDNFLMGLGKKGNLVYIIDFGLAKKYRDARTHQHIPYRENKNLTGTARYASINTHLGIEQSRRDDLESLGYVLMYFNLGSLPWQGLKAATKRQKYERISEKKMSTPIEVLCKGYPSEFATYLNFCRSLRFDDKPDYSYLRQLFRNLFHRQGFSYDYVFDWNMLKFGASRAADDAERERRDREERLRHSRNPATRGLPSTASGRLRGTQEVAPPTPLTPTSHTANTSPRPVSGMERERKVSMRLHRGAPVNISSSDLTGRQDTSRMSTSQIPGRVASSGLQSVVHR
T2 sequence (P49841 whole entry): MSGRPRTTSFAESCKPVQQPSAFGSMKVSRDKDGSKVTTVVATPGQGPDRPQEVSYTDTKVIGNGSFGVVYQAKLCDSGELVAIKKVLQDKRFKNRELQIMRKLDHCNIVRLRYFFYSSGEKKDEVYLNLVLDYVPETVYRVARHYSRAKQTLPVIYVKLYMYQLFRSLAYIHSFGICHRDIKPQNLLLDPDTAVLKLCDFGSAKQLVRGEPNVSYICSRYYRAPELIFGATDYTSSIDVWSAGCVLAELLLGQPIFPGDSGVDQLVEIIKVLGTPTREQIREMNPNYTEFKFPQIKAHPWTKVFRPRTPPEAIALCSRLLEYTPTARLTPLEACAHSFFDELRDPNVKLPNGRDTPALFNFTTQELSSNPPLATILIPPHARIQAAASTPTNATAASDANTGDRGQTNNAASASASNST
T1 sequence (P49840 whole entry): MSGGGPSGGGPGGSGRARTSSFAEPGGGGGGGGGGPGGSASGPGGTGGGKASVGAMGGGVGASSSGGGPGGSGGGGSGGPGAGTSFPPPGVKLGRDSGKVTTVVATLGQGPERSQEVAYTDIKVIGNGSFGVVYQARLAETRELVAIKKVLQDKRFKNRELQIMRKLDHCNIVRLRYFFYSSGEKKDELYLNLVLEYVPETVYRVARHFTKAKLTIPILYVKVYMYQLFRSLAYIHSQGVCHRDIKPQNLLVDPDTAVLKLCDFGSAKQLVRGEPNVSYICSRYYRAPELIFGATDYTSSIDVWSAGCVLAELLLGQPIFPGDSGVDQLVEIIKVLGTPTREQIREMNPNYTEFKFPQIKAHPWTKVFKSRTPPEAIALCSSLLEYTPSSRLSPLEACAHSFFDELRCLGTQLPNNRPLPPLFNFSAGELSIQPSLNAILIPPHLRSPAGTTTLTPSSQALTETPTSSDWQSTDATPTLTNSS

Row | Compound | IC50 (GSK3α [1]) [µM] | Kd (CK1δ) [µM] | IC50 (GSK3β [2]) [µM] | Kd (GSK3β [3]) [µM] | IC50 (GSK3β [4]) [µM] | IC50 (GSK3β [5]) [µM] | ADP Glo Assay GSK3β vs CDK5 fold selectivity (CDK5/p25) [X] | IC50 (GSK3α [6]) [µM]
1 | Cc1[nH]nc2c1C(c1cccs1)C1=C(CC(C)(C)CC1=O)N2 (racemic) [Compound 5, 3,7,7-trimethyl-4-(thiophen-2-yl)-6,7,8,9-tetrahydro-1H-pyrazolo[3,4-b]quinolin-5(4H)-one] | 0.101 to 1 | 0.101 to 1 | 0.101 to 1 | 0.101 to 1 | 0.101 to 1 | – | – | –
2 | Cc1[nH]nc2c1[C@H](c1ccccc1C(F)(F)F)C1=C(CC(C)(C)CC1=O)N2 (racemic) [Compound 28, 3,7,7-trimethyl-4-(2-(trifluoromethyl)phenyl)-6,7,8,9-tetrahydro-2H-pyrazolo[3,4-b]quinolin-5(4H)-one] | – | – | – | – | < 0.1 | < 0.1 | 12 | < 0.1
3 | CC1(C)CC(=O)C2=C(C1)Nc1n[nH]c(C(F)(F)F)c1C2(C)c1ccccc1 (racemic) [Compound 68, 4,7,7-trimethyl-4-phenyl-3-(trifluoromethyl)-6,7,8,9-tetrahydro-2H-pyrazolo[3,4-b]quinolin-5(4H)-one] | – | – | – | – | < 0.1 | < 0.1 | 244 | < 0.1
4 | Cc1[nH]nc2c1C(c1ccsc1)C1=C(CC(C)(C)CC1=O)N2 (stereo not drawn) [Compound 8, 3,7,7-trimethyl-4-(thiophen-3-yl)-6,7,8,9-tetrahydro-1H-pyrazolo[3,4-b]quinolin-5(4H)-one] | 0.101 to 1 | 0.101 to 1 | 0.101 to 1 | 0.101 to 1 | 1 to 5 | – | – | –
5 | Cc1[nH]nc2c1C(c1ccc(Cl)s1)C1=C(CC(C)(C)CC1=O)N2 (stereo not drawn) [Compound 9, 4-(5-chlorothiophen-2-yl)-3,7,7-trimethyl-6,7,8,9-tetrahydro-1H-pyrazolo[3,4-b]quinolin-5(4H)-one] | 0.101 to 1 | 1 to 5 | 0.101 to 1 | 0.101 to 1 | 1 to 5 | – | – | –
6 | Cc1[nH]nc2c1C(c1cccc(F)c1)C1=C(CC(C)(C)CC1=O)N2 (stereo not drawn) [Compound 11, 4-(3-fluorophenyl)-3,7,7-trimethyl-6,7,8,9-tetrahydro-1H-pyrazolo[3,4-b]quinolin-5(4H)-one] | – | 0.101 to 1 | 0.101 to 1 | 1 to 5 | 0.101 to 1 | – | 61 | < 0.1
7 | Cc1[nH]nc2c1C(c1ccccc1Cl)C1=C(CC(C)(C)CC1=O)N2 (stereo not drawn) [Compound 13, 4-(2-chlorophenyl)-3,7,7-trimethyl-6,7,8,9-tetrahydro-2H-pyrazolo[3,4-b]quinolin-5(4H)-one] | – | – | – | – | 0.101 to 1 | < 0.1 | 6 | < 0.1
8 | Cc1[nH]nc2c1C(c1cccc(Cl)c1)C1=C(CC(C)(C)CC1=O)N2 (stereo not drawn) [Compound 14, 4-(3-chlorophenyl)-3,7,7-trimethyl-6,7,8,9-tetrahydro-1H-pyrazolo[3,4-b]quinolin-5(4H)-one] | – | 0.101 to 1 | 0.101 to 1 | 0.101 to 1 | 0.101 to 1 | – | – | < 0.1
9 | Cc1[nH]nc2c1C(c1ccc(Cl)cc1)C1=C(CC(C)(C)CC1=O)N2 (stereo not drawn) [Compound 15, 4-(4-chlorophenyl)-3,7,7-trimethyl-6,7,8,9-tetrahydro-1H-pyrazolo[3,4-b]quinolin-5(4H)-one] | 0.101 to 1 | 1 to 5 | 1 to 5 | 1 to 5 | 1 to 5 | – | – | –
10 | Cc1[nH]nc2c1C(c1ccccc1Br)C1=C(CC(C)(C)CC1=O)N2 (stereo not drawn) [Compound 16] | – | – | – | – | – | < 0.1 | 14 | < 0.1
11 | COc1cccc(C2C3=C(CC(C)(C)CC3=O)Nc3n[nH]c(C)c32)c1 (stereo not drawn) [Compound 23, 4-(3-methoxyphenyl)-3,7,7-trimethyl-6,7,8,9-tetrahydro-1H-pyrazolo[3,4-b]quinolin-5(4H)-one] | 0.101 to 1 | 1 to 5 | 0.101 to 1 | 5 to 30 | 0.101 to 1 | – | – | –
12 | COc1ccc(C2C3=C(CC(C)(C)CC3=O)Nc3n[nH]c(C)c32)cc1 (stereo not drawn) [Compound 24, 4-(4-methoxyphenyl)-3,7,7-trimethyl-6,7,8,9-tetrahydro-1H-pyrazolo[3,4-b]quinolin-5(4H)-one] | 5 to 30 | 1 to 5 | 1 to 5 | 1 to 5 | 5 to 30 | – | – | –
13 | CSc1ccccc1C1C2=C(CC(C)(C)CC2=O)Nc2n[nH]c(C)c21 (stereo not drawn) [Compound 25, 3,7,7-trimethyl-4-(2-(methylthio)phenyl)-6,7,8,9-tetrahydro-2H-pyrazolo[3,4-b]quinolin-5(4H)-one] | – | – | – | – | < 0.1 | < 0.1 | 124 | < 0.1
14 | Cc1[nH]nc2c1C(c1ccc3c(c1)OCO3)C1=C(CC(C)(C)CC1=O)N2 (stereo not drawn) [Compound 26, 4-(benzo[d][1,3]dioxol-5-yl)-3,7,7-trimethyl-6,7,8,9-tetrahydro-1H-pyrazolo[3,4-b]quinolin-5(4H)-one] | 0.101 to 1 | 0.101 to 1 | 1 to 5 | 1 to 5 | 1 to 5 | – | – | –
15 | Cc1[nH]nc2c1[C@@H](c1ccccc1C#N)C1=C(CC(C)(C)CC1=O)N2 [Compound 32, 2-(3,7,7-trimethyl-5-oxo-4,5,6,7,8,9-hexahydro-2H-pyrazolo[3,4-b]quinolin-4-yl)benzonitrile] | – | – | – | – | 0.101 to 1 | < 0.1 | 30 | < 0.1
16 | Cc1[nH]nc2c1C(c1cccc(C#N)c1)C1=C(CC(C)(C)CC1=O)N2 (stereo not drawn) [Compound 33, 3-(3,7,7-trimethyl-5-oxo-4,5,6,7,8,9-hexahydro-2H-pyrazolo[3,4-b]quinolin-4-yl)benzonitrile] | – | – | – | – | < 0.1 | < 0.1 | 131 | < 0.1

Row | Compound | IC50 (GSK3α [1]) [µM] | Kd (CK1δ) [µM] | IC50 (GSK3β [2]) [µM] | Kd (GSK3β [3]) [µM] | IC50 (GSK3β [4]) [µM] | IC50 (GSK3β [5]) [µM] | ADP Glo Assay GSK3β vs CDK5 fold selectivity (CDK5/p25) [X] | IC50 (GSK3α [6]) [µM]
17 | Cc1[nH]nc2c1C(c1ccc(F)cc1Cl)C1=C(CC(C)(C)CC1=O)N2 (stereo not drawn) [Compound 35, 4-(2-chloro-4-fluorophenyl)-3,7,7-trimethyl-6,7,8,9-tetrahydro-1H-pyrazolo[3,4-b]quinolin-5(4H)-one] | 0.101 to 1 | 5 to 30 | 0.101 to 1 | 5 to 30 | 1 to 5 | – | 7 | –
18 | Cc1[nH]nc2c1C(c1ccccn1)C1=C(CC(C)(C)CC1=O)N2 (stereo not drawn) [Compound 36, 3,7,7-trimethyl-4-(pyridin-2-yl)-6,7,8,9-tetrahydro-1H-pyrazolo[3,4-b]quinolin-5(4H)-one] | 1 to 5 | 5 to 30 | 0.101 to 1 | 0.101 to 1 | 0.101 to 1 | – | – | –
19 | Cc1[nH]nc2c1C(c1cccnc1)C1=C(CC(C)(C)CC1=O)N2 (stereo not drawn) [Compound 37, 3,7,7-trimethyl-4-(pyridin-3-yl)-6,7,8,9-tetrahydro-1H-pyrazolo[3,4-b]quinolin-5(4H)-one] | 0.101 to 1 | 1 to 5 | 0.101 to 1 | 0.101 to 1 | 0.101 to 1 | – | – | –
20 | Cc1[nH]nc2c1C(c1ccc(Br)cn1)C1=C(CC(C)(C)CC1=O)N2 (stereo not drawn) [Compound 39, 4-(5-bromopyridin-2-yl)-3,7,7-trimethyl-6,7,8,9-tetrahydro-1H-pyrazolo[3,4-b]quinolin-5(4H)-one] | 1 to 5 | 5 to 30 | 1 to 5 | 5 to 30 | 1 to 5 | – | – | –
21 | Cc1[nH]nc2c1C(c1ccn[nH]1)C1=C(CC(C)(C)CC1=O)N2 (stereo not drawn) [Compound 40, 3,7,7-trimethyl-4-(1H-pyrazol-5-yl)-6,7,8,9-tetrahydro-1H-pyrazolo[3,4-b]quinolin-5(4H)-one] | 0.101 to 1 | 5 to 30 | 0.101 to 1 | 5 to 30 | 1 to 5 | – | – | –
22 | Cc1[nH]nc2c1C(c1cccc3nonc13)C1=C(CC(C)(C)CC1=O)N2 (stereo not drawn) [Compound 41] | – | – | – | – | – | < 0.1 | 51 | –
23 | CCc1[nH]nc2c1C(c1ccccc1OC)C1=C(CC(C)(C)CC1=O)N2 (stereo not drawn) [Compound 48] | – | – | – | – | – | < 0.1 | 35 | –
24 | COc1ccccc1C1C2=C(CC(C)(C)CC2=O)Nc2n[nH]c(C(C)C)c21 (stereo not drawn) [Compound 49] | – | – | – | – | – | < 0.1 | 14 | –
25 | CC1(C)CC(=O)C2=C(C1)Nc1n[nH]c(C(F)(F)F)c1C2c1ccccc1 (stereo not drawn) [Compound 52] | – | – | – | – | – | < 0.1 | 615 | –
26 | CC1(C)CC(=O)C2=C(C1)Nc1n[nH]c(C(F)(F)F)c1C2c1ccccc1F (stereo not drawn) [Compound 58] | – | – | – | – | – | < 0.1 | – | –
27 | CC1(C)CC(=O)C2=C(C1)Nc1n[nH]c(C(F)(F)F)c1C2c1cccc(F)c1C(F)(F)F (stereo not drawn) [Compound 63] | – | – | – | – | – | < 0.1 | 276 | –
28 | CC1(C)CC(=O)C2=C(C1)Nc1n[nH]c(C(F)(F)F)c1C2c1cc(F)ccc1C(F)(F)F (stereo not drawn) [Compound 64] | – | – | – | – | – | < 0.1 | 162 | –
29 | Cc1[nH]nc2c1C(C)(c1cccc(C(N)=O)c1)C1=C(CC(C)(C)CC1=O)N2 (stereo not drawn) [Compound 90, 3-(3,4,7,7-tetramethyl-5-oxo-4,5,6,7,8,9-hexahydro-2H-pyrazolo[3,4-b]quinolin-4-yl)benzamide] | – | – | < 0.1 | – | – | – | – | < 0.1
30 | COC(=O)c1[nH]nc2c1C(C)(c1ccccc1)C1=C(CC(C)(C)CC1=O)N2 (stereo not drawn) [Compound 104] | – | – | < 0.1 | – | – | – | – | < 0.1
31 | CC1(C)CC(=O)C2=C(C1)Nc1n[nH]c(C3CC3)c1C2(c1ccccc1)C(F)(F)F (stereo not drawn) [Compound 112] | – | – | < 0.1 | – | – | – | – | < 0.1
32 | CC1(C)CC(=O)C2=C(C1)Nc1n[nH]c(C3CC3)c1C2(C)c1ccccc1F (stereo not drawn) [Compound 116] | – | – | < 0.1 | – | – | – | – | < 0.1
